Results from patent US9144557B2, “Hematopoietic growth factor mimetic small molecule compounds and their uses” (Ligand Pharmaceuticals Inc., priority 2009, dated 2015).

Tested on: UT7/EPO Cell line
Experiment: Cell Proliferation Assay (UT7/EPO, ViaLight Plus)
Format: cell-based, human
Conditions: proliferative effect; compounds at 10 uM; UT7/EPO cells starved of EPO overnight; 72 hours at 37° C.; ViaLight Plus kit
Method in brief: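 UT7/EPO human leukemia cells (endogenous EPO receptor, EPO-dependent growth) were EPO-starved overnight, then exposed to compounds at 10 uM for 72 hours at 37° C. Proliferation was read out by ATP-based luminescence (ViaLight Plus).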

SMILES | Activity (%)
O=C(CNC(=O)c1ccc(-c2ccc(C(=O)NCC(=O)Nc3ccc(N4CCOCC4)cc3)cc2)cc1)Nc1ccc(N2CCOCC2)cc1 [Compound 465, N,N′-bis(2-(4-Morpholinophenylamino)-2-oxoethyl)biphenyl-4,4′-dicarboxamide] | 18
O=C(Nc1ccc(N2CCOCC2)cc1)c1ccc(-c2nc3ccc(OCc4ccccc4)cc3[nH]2)cc1 [Compound 639, 4-(6-Benzyloxy-1H-benzo[d]imidazol-2-yl)-N-(4-morpholinophenyl)benzamide] | 15
O=C(Nc1ccc(C(=O)c2ccc(NC(=O)c3ccc(N4CCCCC4)cc3)cc2)cc1)c1ccc(N2CCCCC2)cc1 [Compound 322, N,N′-(carbonylbis(4,1-phenylene))bis(4-(piperidin-1-yl)benzamide)] | 20
CN(C)c1ccc(C(=O)N/N=C/c2cc(/C=N/NC(=O)c3ccc(N(C)C)cc3)cc(NCCO)c2)cc1 [Compound 135, (N′,N′″E,N′,N′″E)-N′,N′″-((5-((2-hydroxyethyl)amino)-1,3-phenylene)bis(methanylylidene))bis(4-(dimethylamino)benzohydrazide)] | 16
COC(=O)c1ccc(C(=O)Nc2ccc3[nH]c(-c4ccccc4)nc3c2)cc1 [Compound 1705, Methyl 4-(2-phenyl-1H-benzimidazol-5-ylcarbamoyl)-benzoate] | 12
CN(C)c1ccc(-c2nc3cc(NC(=O)c4ccc(C(=O)NN)cc4)ccc3[nH]2)cc1 [Compound 273, N-(2-(4-(dimethylamino)phenyl)-1H-benzo[d]imidazol-5-yl)-4-(hydrazinecarbonyl)benzamide] | 16
CN(C)c1ccc(-c2nc3cc(C(=O)Nc4ccc(NC(=O)c5ccc6[nH]c(-c7ccc(N(C)C)cc7)nc6c5)cc4)ccc3[nH]2)cc1 [Compound 283, N,N′-(1,4-phenylene)bis(2-(4-(dimethylamino)phenyl)-1H-benzo[d]imidazole-5-carboxamide)] | 19
Nc1ccc(-n2ncc3cc(NC(=O)c4ccc(N5CCOCC5)cc4)ccc32)cc1 [Compound 381, N-(1-(4-Aminophenyl)-1H-indazol-5-yl)-4-morpholinobenzamide] | 15
O=C(Nc1ccc(C(=O)c2ccc(NC(=O)c3ccc[nH]3)cc2)cc1)c1ccc(N2CCCC(CO)C2)cc1 (racemic) [Compound 700, (±)-N-(4-(4-(4-(3-(Hydroxymethyl)piperidin-1-yl)benzamido)benzoyl)phenyl)-1H-pyrrole-2-carboxamide] | 14
Cc1cc(C(=O)Nc2ccc(C(=O)c3ccc(NC(=O)c4ccc(N5CCOCC5)cc4)cc3)cc2)cc(Cl)n1 [Compound 620, 4-Morpholino-N-(4-(4-(2-chloro-6-methylpyridine-4-carboxamido)benzoyl)phenyl)benzamide] | 18
O=C(N/N=C/c1cccc(/C=N/NC(=O)c2ccc(N(CC(F)(F)F)CC(F)(F)F)cc2)c1)c1ccc(N(CC(F)(F)F)CC(F)(F)F)cc1 [Compound 115, (N′,N′″E,N′,N′″E)-N′,N′″-(1,3-phenylenebis(methanylylidene))bis(4-(bis(2,2,2-trifluoroethyl)amino)benzohydrazide)] | 22
O=C(Nc1ccc(C(=O)c2ccc(NC(=O)c3cccc4cc[nH]c34)cc2)cc1)c1ccc(N2CCC(O)CC2)cc1 [Compound 690, N-(4-(4-(4-(4-Hydroxypiperidin-1-yl)benzamido)benzoyl)phenyl)-1H-indolyl-7-carboxamide] | 16
CN(C)c1ccc(NC(=O)c2ccc(-c3nc4cc(NC(=O)c5ccccc5)ccc4[nH]3)cc2)cc1 [Compound 191, 4-(5-benzamido-1H-benzo[d]imidazol-2-yl)-N-(4-(dimethylamino)phenyl)benzamide] | 18
Cn1cccc1C(=O)Nc1ccc(Nc2ccc(NC(=O)c3ccc(N4CCC(CO)CC4)cc3)cc2)cc1 [Compound 800, N-(4-((4-(4-(4-Hydroxymethylpiperidin-1-yl)benzamido)phenyl)amino)phenyl)-1-methyl-1H-pyrrole-2-carboxamide] | 23
CN(C)c1ccc(C(=O)Nc2ccc(Sc3ccc(NC(=O)c4ccc(N(C)C)cc4)cc3)cc2)cc1 [Compound 408, N,N′-(4,4′-Thiobis(4,1-phenylene))bis(4-(dimethylamino)benzamide)] | 13
Cc1cc(C(=O)Nc2ccc(Nc3ccc(NC(=O)c4ccc(N5CCC(O)CC5)cc4)cc3)cc2)c(C)[nH]1 [Compound 790] | 18
O=C(O)c1ccc(-c2nc3cc(NC(=O)c4ccc(N5CCCC5)cc4)ccc3[nH]2)cc1 [Compound 1719] | 17
COC(=O)c1ccc(C(=O)Nc2ccc3[nH]c(-c4ccc(OC)cc4)nc3c2)cc1 [Compound 1739, Methyl 4-(2-(4-methoxyphenyl)-1H-benzimidazol-5-ylcarbamoyl)-benzoate] | 19
Nc1ccc(C(=O)Nc2ccc(Nc3ccc(NC(=O)c4ccc(N)cc4)cc3)cc2)cc1 [Compound 580, N,N′-(4,4′-Azanediylbis(4,1-phenylene))bis(4-aminobenzamide)] | 16
COc1ccc(C(=O)Nc2ccc3[nH]c(-c4ccc(N5CCCC5)cc4)nc3c2)cc1 [Compound 177, 4-Methoxy-N-(2-(4-(pyrrolidin-1-yl)phenyl)-1H-benzo[d]imidazol-5-yl)benzamide] | 15
O=C(Nc1ccc2[nH]c(-c3ccc(N4CCOCC4)nc3)nc2c1)c1ccc(N2CCOCC2)cc1 [Compound 256, 4-morpholino-N-(2-(6-morpholinopyridin-3-yl)-1H-benzo[d]imidazol-5-yl)benzamide] | 12
